Test results from paper PMC5075052, “Modulation of the Substitution Pattern of 5-Aryl-2-Aminoimidazoles Allows Fine-Tuning of Their Antibiofilm Activity Spectrum and Toxicity” (Antimicrobial Agents and Chemotherapy, 2016).
Read-outs that look alike come from different tables or passages of the source.

What was measured:
E. coli TG1 = experiment: Monospecies bacterial biofilm inhibition, static peg assay; type: cell-based, Escherichia coli; conditions: Escherichia coli
Protocol: (§1) A static peg assay, described previously ([27], [74]), was used for bacterial biofilm formation. The Calgary biofilm device consists of a platform carrying 96 polystyrene pegs (Nunc no. 445497) that fits as a microtiter plate lid, with 1 peg hanging into each microtiter plate well (Nunc no. 269789). Twofold serial dilutions of the compounds (dissolved in 100% dimethyl sulfoxide [DMSO] or ethanol) in 100 μl liquid broth (TSB diluted 1/20) per well were prepared in the microtiter plate in duplicate or triplicate with a maximum concentration of 1,600 μM and a minimum concentration of 0.8 μM. Subsequently, an overnight culture of S. Typhimurium ATCC 14028, P. aeruginosa PA14, E. coli TG1, S. epidermidis, S. aureus SH1000, or S. aureus ATCC 6538 (all grown in LB) was diluted 1:100 into TSB diluted 1/20 (or TSB for S. epidermidis, S. aureus SH1000, and S. aureus ATCC 6538), whereas overnight cultures of S. liquefaciens MG44 and B. cepacia LMG1222T were diluted 1:50 into TSB diluted 1/20. P. gingivalis ATCC 33277 cultures were diluted in TSB diluted 1/20 to have a final concentration of 1 × 10^8 cells/ml. Next, 100 μl was added to each well of the microtiter plate, resulting in a total volume of 200 μl medium per well (final concentration range of compounds, 800 μM [2% DMSO or ethanol] to 0.4 μM [0.001% DMSO or ethanol]). In the next step, the pegged lid was placed on the microtiter plate and the plate was incubated for 24 h or 48 h at 25°C or 37°C without shaking. At 37°C, the plates were placed in a sealed container with wet towels on the bottom to prevent evaporation of the growth medium. Biofilms of P. gingivalis ATCC 33277 were grown anaerobically at 37°C for 72 h. During this incubation period, biofilms were formed on the surface of the pegs. After incubation, the optical density at 600 nm (OD600) for the planktonic cells in the microtiter plate was measured using a Synergy MX multimode reader (BioTek, Winooski, VT). This gives a first indication of the effect of the compounds on planktonic growth. For quantification of biofilm formation, the pegs were washed once in 200 μl PBS. The remaining attached bacteria were stained for 30 min with 200 μl 0.1% (wt/vol) crystal violet in an isopropanol-methanol-PBS solution (1:1:18, vol/vol). Excess stain was rinsed off by placing the pegs in a 96-well plate filled with 200 μl distilled water per well. After air drying of the pegs (30 min), the dye bound to the adherent biofilm was extracted with 30% glacial acetic acid (200 μl per well of a 96-well plate). The optical density at 570 nm (OD570) of each well was measured using a Synergy MX multimode reader (BioTek, Winooski, VT). The concentration of each compound needed to inhibit biofilm formation by 50% (BIC50) and the concentration of each compound needed to inhibit planktonic growth by 50% (IC50) were determined from the concentration gradient by using nonlinear curve fitting (GraphPad Prism software, version 5; GraphPad Software, Inc., La Jolla, CA). In the same assay, the effect on planktonic growth was evaluated. The activity was considered biofilm specific if the BIC50 was at least two times lower than the IC50. Data represent the means from at least 3 technical repeats with the corresponding 95% confidence intervals (provided in the supplemental material).

[1] = test system: E. coli TG1 + P. aeruginosa PA14; experiment: Mixed-species E. coli-P. aeruginosa biofilm assay (peg, crystal violet); type: cell-based, Escherichia coli + Pseudomonas aeruginosa
Protocol: Overnight cultures of E. coli TG1 and P. aeruginosa PA14 were diluted 1/100 in the same vial of TSB diluted 1/20 to form a mixed-culture suspension. Next, 2-fold serial dilutions of the compounds (dissolved in 100% DMSO or ethanol) in 100 μl liquid broth (TSB diluted 1/20) per well were prepared in the microtiter plate of the Calgary biofilm device (Nunc no. 269789) in duplicate or triplicate with a maximum concentration of 1,600 μM and a minimum concentration of 0.8 μM. One hundred microliters of the mixed-culture suspension was added to each well of the microtiter plate, resulting in a total volume of 200 μl medium per well (final concentration range of compounds, 800 μM [2% DMSO or ethanol] to 0.4 μM [0.001% DMSO or ethanol]). The pegged lid was placed on the microtiter plate, and the plate was incubated for 72 h at 37°C, which allowed biofilm formation on the pegs (Nunc no. 269789) of the Calgary biofilm device. After 72 h, the biofilm was colored with crystal violet as described above ([74]). The OD570 (biofilm cells) and OD600 (planktonic cells) were measured, and the BIC50 and the IC50, respectively, were calculated.

[2] = test system: S. aureus ATCC 6538 + S. epidermidis; experiment: Mixed-species S. aureus-S. epidermidis biofilm assay (peg, crystal violet); type: cell-based, Staphylococcus aureus + Staphylococcus epidermidis; conditions: 37°C
Protocol: Overnight cultures of S. aureus ATCC 6538 and S. epidermidis were grown in LB medium and were diluted 1/200 in the same vial of TSB to form a mixed-culture suspension. Next, 2-fold serial dilutions of the compounds (dissolved in 100% DMSO or ethanol) in 100 μl TSB medium per well were prepared in the microtiter plate (Nunc no. 269789) in duplicate or triplicate with a maximum concentration of 1,600 μM and a minimum concentration of 0.8 μM. One hundred microliters of the mixed-culture suspension was added to each well of the microtiter plate, resulting in a total volume of 200 μl medium per well (final concentration range of compounds, 800 μM [2% DMSO or ethanol] to 0.4 μM [0.001% DMSO or ethanol]). The cells were then incubated for 48 h at 37°C, which allowed biofilm formation on the pegs (Nunc no. 269789) of the Calgary biofilm device. After 24 h, fresh medium with compounds was added to the wells, and after 48 h, the biofilm was colored with crystal violet as described above ([74]). The OD570 (biofilm) and OD600 (planktonic) were measured, and the BIC50 and the IC50, respectively, were calculated.

S. aureus ATCC 6538 = experiment: Monospecies bacterial biofilm inhibition, static peg assay (Calgary device, crystal violet; planktonic OD600); type: cell-based, Staphylococcus aureus
Protocol: as §1

P. aeruginosa PA14 = experiment: Monospecies bacterial biofilm inhibition, static peg assay; type: cell-based, Pseudomonas aeruginosa; conditions: Pseudomonas aeruginosa
Protocol: as §1

[3] = TG1, E. coli TG1, 37°C, read-out: BIC50
[4] = TG1, E. coli TG1, 37°C, read-out: IC50 (planktonic growth)
[5] = 72 h, mixed E. coli TG1 + P. aeruginosa PA14, 37°C, read-out: IC50 (planktonic growth)
[6] = 72 h, mixed E. coli TG1 + P. aeruginosa PA14 biofilm, 37°C, read-out: BIC50
[7] = 48 h, mixed S. aureus ATCC 6538 + S. epidermidis biofilm, read-out: BIC50
[8] = 48 h, mixed S. aureus ATCC 6538 + S. epidermidis, read-out: IC50 (planktonic growth)
[9] = Staphylococcus aureus, ATCC6538, read-out: BIC50 (concentration needed to inhibit biofilm formation by 50%), S. aureus ATCC 6538, 37°C
[10] = Staphylococcus aureus, ATCC6538, read-out: IC50 (concentration needed to inhibit planktonic growth by 50%), S. aureus ATCC 6538, 37°C, planktonic OD600
[11] = PA14, P. aeruginosa PA14, 25°C, read-out: BIC50
[12] = PA14, P. aeruginosa PA14, 37°C, read-out: BIC50
[13] = PA14, P. aeruginosa PA14, 37°C, read-out: IC50 (planktonic growth)
[14] = PA14, P. aeruginosa PA14, 25°C, read-out: IC50 (planktonic growth)
[15] = TG1, E. coli TG1, 25°C, read-out: BIC50
[16] = TG1, E. coli TG1, 25°C, read-out: IC50 (planktonic growth)
[17] = mixed E. coli TG1 + P. aeruginosa PA14, 37°C, read-out: IC50 (planktonic growth)
[18] = mixed E. coli TG1 + P. aeruginosa PA14 biofilm, 37°C, read-out: BIC50
[19] = mixed S. aureus ATCC 6538 + S. epidermidis, read-out: IC50 (planktonic growth)
[20] = Staphylococcus aureus, ATCC6538, S. aureus ATCC 6538, 37°C, planktonic OD600, read-out: IC50 (concentration needed to inhibit planktonic growth by 50%)
[21] = Staphylococcus aureus, ATCC6538, S. aureus ATCC 6538, 37°C, read-out: BIC50 (concentration needed to inhibit biofilm formation by 50%)
[22] = mixed S. aureus ATCC 6538 + S. epidermidis biofilm, read-out: BIC50

IC50 (P. aeruginosa PA14; [14]) [µM]	IC50 (E. coli TG1; [15]) [µM]	IC50 (E. coli TG1; [16]) [µM]	IC50 [1, 17] [µM]	IC50 [1, 18] [µM]	IC50 [2, 19] [µM]	IC50 [2, 22] [µM]	SMILES	IC50 (E. coli TG1; [3]) [µM]	IC50 (E. coli TG1; [4]) [µM]	IC50 [1, 5] [µM]	IC50 [1, 6] [µM]	IC50 [2, 7] [µM]	IC50 [2, 8] [µM]	IC50 (S. aureus ATCC 6538; [9]) [µM]	IC50 (S. aureus ATCC 6538; [10]) [µM]	IC50 (P. aeruginosa PA14; [11]) [µM]	IC50 (P. aeruginosa PA14; [12]) [µM]	IC50 (P. aeruginosa PA14; [13]) [µM]	IC50 (S. aureus ATCC 6538; [20]) [µM]	IC50 (S. aureus ATCC 6538; [21]) [µM]	further results
–	–	–	–	–	–	–	CCCCCn1c(-c2ccccc2)cnc1N [Compound 1]	~47.8	34.1	60.7	74.3	44.2	~356	59.3	231	2.1	104	45.2	–	–	–
–	–	–	–	–	–	–	CCCCCCCCn1c(-c2ccc(Cl)cc2)cnc1N [Compound 2]	~6.5	7.7	19.9	36.8	~7.2	~9.9	2 to 6	7.8	4	118	10	–	–	IC50 (S. aureus ATCC 6538; read-out: BIC50 (concentration needed to inhibit biofilm formation by 50%), S. aureus ATCC 6538, 37°C): 2.8 µM
–	–	–	–	–	–	–	CC(C)CNc1ncc(-c2ccc(Cl)cc2)[nH]1 [Compound 3]	110	30	> 400	7.4	~26.3	~140	95.3	~96.1	0.9	> 400	> 400	–	–	–
–	–	–	–	–	–	–	CCCCNc1ncc(-c2ccc(Br)cc2)[nH]1 [Compound 4]	84.7	23	> 400	17.8	6.8	~118	~12.3	60.1	9.8	> 400	> 400	–	–	–
–	–	–	–	–	–	–	Clc1ccc(-c2cnc(NC3CCCC3)[nH]2)cc1 [Compound 5]	~45.7	17.1	> 400	0.5	~66.6	~91.7	34.4	62.3	13.5	> 400	> 400	–	–	–
75.3	~47.2	51.2	> 400	6.6	~26.1	–	CCCCCCCCn1c(-c2ccccc2)cnc1NCC(C)C [Compound 8a]	41.2	10.2	–	–	–	–	–	–	> 400	> 400	66	17.9	~22.9	–
222	29.5	91.9	> 400	> 400	~22.2	1.1	CCCCCCCCn1c(-c2ccc(Cl)cc2)cnc1NCC(C)C [Compound 8b]	330	6.1	–	–	–	–	–	–	> 400	> 400	115	9.3	5.8	–
> 400	> 400	150	> 400	> 400	> 400	5	CCCCCCCCn1c(-c2ccc(Br)cc2)cnc1NCC(C)C [Compound 8c]	> 400	74.1	–	–	–	–	–	–	> 400	> 400	345	173	41	–
> 400	> 400	255	> 400	> 400	> 400	> 400	CCCCCCCCn1c(-c2ccc(Cl)c(Cl)c2)cnc1NCC(C)C [Compound 8d]	> 400	46.3	–	–	–	–	–	–	> 400	> 400	> 400	> 400	116	–
62.9	~26.7	189	> 400	101	~23.6	~3	CCCCCCCCn1c(-c2ccccc2)cnc1NC1CCCC1 [Compound 8e]	~27.6	10.5	–	–	–	–	–	–	> 400	> 400	167	46.5	1	–

SMILES	IC50 (P. aeruginosa PA14; [14]) [µM]	IC50 (E. coli TG1; [15]) [µM]	IC50 (E. coli TG1; [16]) [µM]	IC50 [1, 17] [µM]	IC50 [1, 18] [µM]	IC50 [2, 19] [µM]	IC50 [2, 22] [µM]	IC50 (E. coli TG1; [3]) [µM]	IC50 (E. coli TG1; [4]) [µM]	IC50 [1, 5] [µM]	IC50 [1, 6] [µM]	IC50 [2, 7] [µM]	IC50 [2, 8] [µM]	IC50 (S. aureus ATCC 6538; [9]) [µM]	IC50 (S. aureus ATCC 6538; [10]) [µM]	IC50 (P. aeruginosa PA14; [11]) [µM]	IC50 (P. aeruginosa PA14; [12]) [µM]	IC50 (P. aeruginosa PA14; [13]) [µM]	IC50 (S. aureus ATCC 6538; [20]) [µM]	IC50 (S. aureus ATCC 6538; [21]) [µM]	further results
Brc1ccc(-c2cnc(NCCn3cc(C4CC4)nn3)[nH]2)cc1 [Compound 6]	> 400	–	–	–	–	–	–	~192	183	> 400	34.6	33.9	~392	75.2	> 400	71.6	> 400	> 400	–	–	–
